Test system: splenocytes of immunized HLA DR3 tg mice
Assay: Th1/Th2/Th17 cytokine bead array
Format: cell-based, mouse (HLA DR3 transgenic)
Details: ConA 2 μg/mL, positive control, consistent between arms

Concanavalin A [ConA]
IFNγ concentration above background (highest of panel): 260 pg/mL | IL-4 concentration above background (lowest of panel): 16 pg/mL

Reference: paper PMC5443055 (Human Vaccines & Immunotherapeutics, 2014)
